Data from PubChem BioAssay AID1918995 (Molecular Pharmacology Branch, DTP, NCI, 2023).

System: 324938-238-R-J1-PDC complex spheroid growth, % test/control
Test: Anticancer human tumor 324938-238-R-J1-PDC patient-derived bladder carcinoma cell line growth inhibition [AhR]
Conditions: for IC50: curve of first compound; for viability, T/C: stronger effect = lower value; active means viability on the fitted dose curve at most 10% of control; inactive means the rest
Outline: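 Agents were dosed in half-log steps down from roughly clinical Cmax, or from 10 microM where Cmax was unknown, alone and with AhR antagonists. Read-out: percent test/control growth of tumor spheroids containing HUVEC and MSC stromal cells.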

[1] = second compound 0.1 µM, first compound 0.00316 µM
[2] = second compound 0.1 µM, first compound 0.01 µM
[3] = second compound 0.1 µM, first compound 0.0316 µM
[4] = second compound 0.1 µM, first compound 0.1 µM
[5] = second compound 0.316 µM, first compound 0.00316 µM
[6] = second compound 0.316 µM, first compound 0.01 µM
[7] = second compound 0.316 µM, first compound 0.0316 µM
[8] = second compound 0.316 µM, first compound 0.1 µM
[9] = second compound 1 µM, first compound 0.00316 µM
[10] = second compound 1 µM, first compound 0.01 µM
[11] = second compound 1 µM, first compound 0.0316 µM
[12] = second compound 1 µM, first compound 0.1 µM
[13] = second compound 3.16 µM, first compound 0.00316 µM
[14] = second compound 3.16 µM, first compound 0.01 µM
[15] = second compound 3.16 µM, first compound 0.0316 µM
[16] = second compound 3.16 µM, first compound 0.1 µM
[17] = second compound 10 µM, first compound 0.00316 µM
[18] = second compound 10 µM, first compound 0.01 µM
[19] = second compound 10 µM, first compound 0.0316 µM
[20] = second compound 10 µM, first compound 0.1 µM
[21] = second compound 0.1 µM, first compound 0.316 µM
[22] = second compound 0.1 µM, first compound 1 µM
[23] = second compound 0.1 µM, first compound 3.16 µM
[24] = second compound 0.1 µM, first compound 10 µM
[25] = second compound 0.316 µM, first compound 0.316 µM
[26] = second compound 0.316 µM, first compound 1 µM
[27] = second compound 0.316 µM, first compound 3.16 µM
[28] = second compound 0.316 µM, first compound 10 µM
[29] = second compound 1 µM, first compound 0.316 µM
[30] = second compound 1 µM, first compound 1 µM
[31] = second compound 1 µM, first compound 3.16 µM
[32] = second compound 1 µM, first compound 10 µM
[33] = second compound 3.16 µM, first compound 0.316 µM
[34] = second compound 3.16 µM, first compound 1 µM
[35] = second compound 3.16 µM, first compound 3.16 µM
[36] = second compound 3.16 µM, first compound 10 µM
[37] = second compound 10 µM, first compound 0.316 µM
[38] = second compound 10 µM, first compound 1 µM
[39] = second compound 10 µM, first compound 3.16 µM
[40] = second compound 10 µM, first compound 10 µM
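Further: spheroids exposed to agents for seven days before viability read.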

CC[C@@]1(O)C(=O)OCc2c1cc1n(c2=O)Cc2cc3c(CN(C)C)c(O)ccc3nc2-1 + Cc1ccccc1N=Nc1ccc(NC(=O)c2ccnn2C)c(C)c1
inactive: viability, T/C (second compound 0.1 µM, first compound 0.000316 µM) 102% | viability, T/C (second compound 0.1 µM, first compound 0.001 µM) 107% | viability, T/C [1] 88.9% | viability, T/C [2] 74.6% | viability, T/C [3] 32.8% | viability, T/C [4] 16.2% | viability, T/C (second compound 0.316 µM, first compound 0.000316 µM) 91.9% | viability, T/C (second compound 0.316 µM, first compound 0.001 µM) 101% | viability, T/C [5] 94.8% | viability, T/C [6] 70.7% | viability, T/C [7] 38.1% | viability, T/C [8] 17.4% | viability, T/C (second compound 1 µM, first compound 0.000316 µM) 86.8% | viability, T/C (second compound 1 µM, first compound 0.001 µM) 98.5% | viability, T/C [9] 86.6% | viability, T/C [10] 66% | viability, T/C [11] 36% | viability, T/C [12] 15.7% | viability, T/C (second compound 3.16 µM, first compound 0.000316 µM) 86.2% | viability, T/C (second compound 3.16 µM, first compound 0.001 µM) 86.3% | viability, T/C [13] 87% | viability, T/C [14] 61.9% | viability, T/C [15] 34.7% | viability, T/C [16] 15.6% | viability, T/C (second compound 10 µM, first compound 0.000316 µM) 83.9% | viability, T/C (second compound 10 µM, first compound 0.001 µM) 88.3% | viability, T/C [17] 73.6% | viability, T/C [18] 63.9% | viability, T/C [19] 41.3% | viability, T/C [20] 18.7%
19.6 nM: IC50 (second compound 0.1 µM)
18.5 nM: IC50 (second compound 1 µM)
20.7 nM: IC50 (second compound 0.316 µM)
17 nM: IC50 (second compound 3.16 µM)
20 nM: IC50 (second compound 10 µM)

COc1cc(C2c3cc4c(cc3C(OC3OC5COC(C)OC5C(O)C3O)C3COC(=O)C23)OCO4)cc(OC)c1O (stereo not given) + Cc1ccccc1N=Nc1ccc(NC(=O)c2ccnn2C)c(C)c1
309 nM: IC50 (second compound 1 µM)
249 nM: IC50 (second compound 3.16 µM)
287 nM: IC50 (second compound 10 µM)
391 nM: IC50 (second compound 0.1 µM)
inactive: viability, T/C [3] 89.2% | viability, T/C [4] 79.3% | viability, T/C [21] 52.3% | viability, T/C [22] 33.4% | viability, T/C [23] 28% | viability, T/C [24] 19.5% | viability, T/C [7] 78.4% | viability, T/C [8] 87.8% | viability, T/C [25] 48.7% | viability, T/C [26] 33% | viability, T/C [27] 27% | viability, T/C [28] 16.9% | viability, T/C [11] 79.2% | viability, T/C [12] 75.5% | viability, T/C [29] 47.2% | viability, T/C [30] 29.6% | viability, T/C [31] 23.7% | viability, T/C [32] 16.4% | viability, T/C [15] 68.2% | viability, T/C [16] 61.6% | viability, T/C [33] 46.4% | viability, T/C [34] 33.3% | viability, T/C [35] 28% | viability, T/C [36] 16% | viability, T/C [19] 70.5% | viability, T/C [20] 65.5% | viability, T/C [37] 43.3% | viability, T/C [38] 38.7% | viability, T/C [39] 31.8% | viability, T/C [40] 18.5%
303 nM: IC50 (second compound 0.316 µM)

COc1cccc2c1C(=O)c1c(O)c3c(c(O)c1C2=O)CC(O)(C(=O)CO)CC3OC1CC(N)C(O)C(C)O1 (stereo not given) + Cc1ccccc1N=Nc1ccc(NC(=O)c2ccnn2C)c(C)c1
< 31.6 nM: IC50 (second compound 0.1 µM) | IC50 (second compound 0.316 µM) | IC50 (second compound 1 µM) | IC50 (second compound 3.16 µM) | IC50 (second compound 10 µM)
active: viability, T/C [22] 4.96% | viability, T/C [23] 0.1% | viability, T/C [24] 0.15% | viability, T/C [26] 4.13% | viability, T/C [27] 0.05% | viability, T/C [28] 0.13% | viability, T/C [30] 3.09% | viability, T/C [31] 0.05% | viability, T/C [32] 0.12% | viability, T/C [34] 3.16% | viability, T/C [35] 0.08% | viability, T/C [36] 0.13% | viability, T/C [38] 5.73% | viability, T/C [39] 0.14% | viability, T/C [40] 0.2%
inactive: viability, T/C [3] 34.7% | viability, T/C [4] 29.3% | viability, T/C [21] 18.9% | viability, T/C [7] 37.7% | viability, T/C [8] 35.9% | viability, T/C [25] 13.8% | viability, T/C [11] 35.1% | viability, T/C [12] 31.4% | viability, T/C [29] 16.4% | viability, T/C [15] 34.7% | viability, T/C [16] 31.7% | viability, T/C [33] 15.9% | viability, T/C [19] 38% | viability, T/C [20] 37.6% | viability, T/C [37] 22%

Nc1ncn(C2CC(O)C(CO)O2)c(=O)n1 (stereo not given) + Cc1ccccc1N=Nc1ccc(NC(=O)c2ccnn2C)c(C)c1
inactive: viability, T/C [1] 90.1% | viability, T/C [2] 94.7% | viability, T/C [3] 97.8% | viability, T/C [4] 83.3% | viability, T/C [21] 71.2% | viability, T/C [22] 65.3% | viability, T/C [5] 81.9% | viability, T/C [6] 87.9% | viability, T/C [7] 89.4% | viability, T/C [8] 78.5% | viability, T/C [25] 69.7% | viability, T/C [26] 64.8% | viability, T/C [9] 85.3% | viability, T/C [10] 83% | viability, T/C [11] 89.5% | viability, T/C [12] 74.7% | viability, T/C [29] 82.3% | viability, T/C [30] 62% | viability, T/C [13] 74.9% | viability, T/C [14] 78.7% | viability, T/C [15] 77.2% | viability, T/C [16] 68.7% | viability, T/C [33] 70% | viability, T/C [34] 60.9% | viability, T/C [17] 77.9% | viability, T/C [18] 76.1% | viability, T/C [19] 78.6% | viability, T/C [20] 73.6% | viability, T/C [37] 73.4% | viability, T/C [38] 60.7%
> 1000 nM: IC50 (second compound 0.1 µM) | IC50 (second compound 0.316 µM) | IC50 (second compound 1 µM) | IC50 (second compound 3.16 µM) | IC50 (second compound 10 µM)
